From patent US20070218134A1, “Compositions Comprising Organic Compounds” (priority 2003, published 2007) come the findings set out here.

The nature of data set [1]: degradation kinetics of fluvastatin in aqueous solution at various pH. Format: physicochemical. An excerpt:
Certain HMG-CoA reductase inhibitors are extremely susceptible to degradation at pH below about 8. An example of such a compound comprises the compound having the USAN designation fluvastatin sodium (hereinafter “fluvastatin”), of the chemical designation: R*,S*-(E)(±)-7-[3-(4-fluorophenyl)-1-(1-methyl-ethyl)-1H-indol-2-yl]-3,5-dihydroxy-6-heptenoic acid, sodium salt, [see European Patent Application EP-A-114027].
For example, the degradation kinetics of fluvastatin in aqueous solution at various pH is illustrated below:
The above-indicated instability of fluvastatin and related HMG-CoA reductase compounds is believed to be due to the extreme lability of the β,δ-hydroxy groups on the heptenoic acid chain and the presence of the double bond, such that at neutral to acidic pH, the compounds readily undergo elimination or isomerization or oxidation reactions to form conjugated unsaturated aromatic compounds, as well as the threo isomer, the corresponding lactones, and other degradation products.

The nature of data set [2]: solubility of pitavastatin depending on pH. It is filed as physicochemical. As to conditions: acidic pH conditions.

Structures are written as SMILES. Structures can show the parent of a compound that is named as a salt.

Regarding `CC(C)n1c(/C=C/C(O)CC(O)CC(=O)O)c(-c2ccc(F)cc2)c2ccccc21` (stereo not drawn) [fluvastatin, R*,S*-(E)(±)-7-[3-(4-fluorophenyl)-1-(1-methyl-ethyl)-1H-indol-2-yl]-3,5-dihydroxy-6-heptenoic acid, sodium salt], the “% fluvastatin remaining at 37° C.” value in data set [1] (pH 1.0, after 1 hour) amounted to 10.9%; in data set [1] (pH 1.0, after 24 hrs) it was 0%; in data set [1] (pH 4.0, after 1 hour), 86.7%; in data set [1] (pH 4.0, after 24 hrs) it was 25.2%; in data set [1] (pH 6.0, after 1 hour), 99.6%; in data set [1] (pH 6.0, after 24 hrs), 97.1%. In addition, the “% fluvastatin remaining at 37° C.” value is on record as 98.3% in data set [1] (pH 7.8, after 1 hour) and 98.0% in data set [1] (pH 7.8, after 24 hrs).
For the compound `O=C(O)C[C@H](O)C[C@H](O)/C=C/c1c(C2CC2)nc2ccccc2c1-c1ccc(F)cc1` [pitavastatin], in data set [2], the solubility of pitavastatin entry was “higher”.
